According to ChEMBL document CHEMBL1142850, “Hepatitis C virus NS3-4A serine protease inhibitors: use of a P2-P1 cyclopropyl alanine combination for improved potency” (Bioorg Med Chem Lett, 2005):
Numbered stars: 1 amine (or outer) side, 2 acyl side, 3 side chain; on linkers, the order of the positions; unused ones are H or OH. Square brackets hold non-standard residues; d marks the D form. Peptide text beside a SMILES is read from it. * marks the point of attachment. Isobutyloxycarbonyl = CC(C)COC(=O)*; Ala(cPr) = N[C@@H](CC1CC1)C(=O)O; X1 = CCCC(N[*:1])C(=O)C(=O)[*:2]; Ahp(2) = CCCCC[C@H](N)C(=O)O; Cba = N[C@@H](CC1CCC1)C(=O)O; Chg = N[C@H](C(=O)O)C1CCCCC1; Phg = N[C@H](C(=O)O)c1ccccc1; hLeu = CC(C)CC[C@H](N)C(=O)O

Molecular target: NS3 (Hepatitis C virus, UniProt A3EZJ3)
Assay: Inhibitory activity against HCV NS3 serine protease 1
Parameters: species or system Hepacivirus hominis

Chain of NS3 (A3EZJ3 whole entry): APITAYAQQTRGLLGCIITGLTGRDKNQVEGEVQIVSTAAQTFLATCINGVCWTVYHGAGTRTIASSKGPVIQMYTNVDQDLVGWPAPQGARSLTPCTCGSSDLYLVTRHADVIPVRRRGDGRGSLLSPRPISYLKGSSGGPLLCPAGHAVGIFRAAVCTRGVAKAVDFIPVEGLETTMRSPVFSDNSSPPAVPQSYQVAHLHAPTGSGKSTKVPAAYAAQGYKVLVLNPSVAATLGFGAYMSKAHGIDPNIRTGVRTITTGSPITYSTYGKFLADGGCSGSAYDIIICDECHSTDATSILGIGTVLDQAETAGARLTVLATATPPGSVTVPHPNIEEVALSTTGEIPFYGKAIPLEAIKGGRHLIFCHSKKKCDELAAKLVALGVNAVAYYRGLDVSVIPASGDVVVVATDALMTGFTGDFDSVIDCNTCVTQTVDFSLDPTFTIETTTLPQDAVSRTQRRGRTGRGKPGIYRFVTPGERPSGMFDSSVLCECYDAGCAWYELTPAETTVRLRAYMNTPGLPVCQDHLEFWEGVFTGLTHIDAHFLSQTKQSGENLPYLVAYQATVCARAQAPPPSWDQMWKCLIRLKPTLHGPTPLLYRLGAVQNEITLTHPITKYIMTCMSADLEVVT

**Q.** For CCCC(NC(=O)[C@H](CC1CCC1)NC(=O)[C@@H](NC(=O)OCC(C)C)C1CCCCC1)C(=O)C(=O)NCC(=O)N[C@H](C(=O)O)c1ccccc1 (some centres undefined) (Isobutyloxycarbonyl-[Chg][Cba][X1]G[Phg]-OH), which Ki is on record?
**A.** 140 nM

**Q.** Which Ki does the source give for CCCC(NC(=O)[C@H](CC1SCc2ccccc2CS1)NC(=O)[C@@H](NC(=O)OCC(C)C)C1CCCCC1)C(=O)C(=O)NCC(=O)N[C@H](C(=O)O)c1ccccc1 (some centres undefined) here?
**A.** 2300 nM

**Q.** For CCCCC[C@H](NC(=O)[C@@H](NC(=O)OCC(C)C)C1CCCCC1)C(=O)NC(CCC)C(=O)C(=O)NCC(=O)N[C@H](C(=O)O)c1ccccc1 (some centres undefined) (Isobutyloxycarbonyl-[Chg][Ahp(2)][X1]G[Phg]-OH), which Ki is on record?
**A.** 300 nM

**Q.** With CCCC(NC(=O)[C@H](CCC(C)C)NC(=O)[C@@H](NC(=O)OCC(C)C)C1CCCCC1)C(=O)C(=O)NCC(=O)N[C@H](C(=O)O)c1ccccc1 (some centres undefined) (Isobutyloxycarbonyl-[Chg][hLeu][X1]G[Phg]-OH) as the compound, how does the Ki read?
**A.** 310 nM

**Q.** CCCC(NC(=O)[C@H](CC1OCCCO1)NC(=O)[C@@H](NC(=O)OCC(C)C)C1CCCCC1)C(=O)C(=O)NCC(=O)N[C@H](C(=O)O)c1ccccc1 (some centres undefined) was tested. Which Ki did it give?
**A.** 430 nM

**Q.** For CCCC(NC(=O)[C@H](CC1SCCCS1)NC(=O)[C@@H](NC(=O)OCC(C)C)C1CCCCC1)C(=O)C(=O)NCC(=O)N[C@H](C(=O)O)c1ccccc1 (some centres undefined), which Ki is on record?
**A.** 250 nM

**Q.** Which Ki does the source give for CCCC(NC(=O)[C@H](CC1OCCO1)NC(=O)[C@@H](NC(=O)OCC(C)C)C1CCCCC1)C(=O)C(=O)NCC(=O)N[C@H](C(=O)O)c1ccccc1 (some centres undefined) here?
**A.** 300 nM

**Q.** With CCCC(NC(=O)[C@H](CC1SCCS1)NC(=O)[C@@H](NC(=O)OCC(C)C)C1CCCCC1)C(=O)C(=O)NCC(=O)N[C@H](C(=O)O)c1ccccc1 (some centres undefined) as the compound, how does the Ki read?
**A.** 90 nM

**Q.** For CCCC(NC(=O)[C@H](CC1CC1)NC(=O)[C@@H](NC(=O)OCC(C)C)C1CCCCC1)C(=O)C(=O)NCC(=O)N[C@H](C(=O)O)c1ccccc1 (some centres undefined) (Isobutyloxycarbonyl-[Chg][Ala(cPr)][X1]G[Phg]-OH), which Ki is on record?
**A.** 50 nM
